# Assay results as given in article PMC6337631, “Effective Tetradentate Compound Complexes against Leishmania spp. that Act on Critical Enzymatic Pathways of These Parasites” (Molecules, 2018).
# How the values were obtained:
# [1] = tested on: Leishmania donovani amastigote forms; test: Amastigote test (intracellular forms in J774.2 macrophages), L. donovani; format: cell-based; conditions: Leishmania donovani, 72 h, mean ± SD
# Method: Promastigote forms of three different Leishmania spp., L. donovani (MHOM/PE/84/LC26), L. infantum (MCAN/ES/2001/UCM-10) and L. braziliensis (MHOM/BR/1975/M2904), were cultured in vitro in Medium Trypanosomes Liquid (MTL) supplemented with 10% inactivated foetal calf serum (FCS) in an air atmosphere at 28 °C, in Roux flasks (Corning, Manassas, VA, USA) with a surface area of 75 cm^2, according to [33].
# The compounds and the reference drug Glu were dissolved in DMSO (Panreac, Barcelona, Spain) and tested from 100 µM to 1 µM with 0.1% (v/v) DMSO final concentration in plates. Therefore, controls were prepared including 0.1% (v/v) of this component, as previously described.
# J774.2 macrophages were grown and seeded at a density of 1 × 10^4 cells/well in 24-well microplates (Nunc) with rounded coverslips on the bottom and cultured for 48 h in humidified 95% air, 5% CO2 atmosphere at 37 °C in Minimal Essential Medium (MEM) with 2 mM glutamine and 20% (v/v) inactivated FCS. Adherent macrophages were infected with metacyclic promastigotes in the stationary growth phase of L. donovani, L. infantum and L. braziliensis at a multiplicity of infection (MOI) ratio of 1:10 and maintained for 24 h. Non-phagocytosed parasites were removed by washing, and after addition of the testing compounds at concentrations from 100 µM to 1 µM, cultured in 500 μL/well volumes. Control cultures were also included. After 72 h incubation, leishmanicidal activity was assessed based on the number of amastigotes in treated and untreated cultures in methanol-fixed and Giemsa-stained preparations by analyzing 500 host cells distributed in randomly chosen microscopic fields. The leishmanicidal effect was calculated as described to determine the leishmanicidal activity in the promastigote forms. Each drug concentration was tested in triplicate in four separate determinations.
# human CuZn-SOD = biological target: T1, human CuZn-SOD (Homo sapiens, UniProt P00441); test: SOD inhibition assay, human CuZn-SOD; format: biochemical; conditions: assayed 100 µM to 0.1 µM; non-linear regression
# T1 construct: purchased Sigma Chemical Co. (St. Louis, MO, USA)
# Method: The previous extraordinary results prompted us to evaluate the inhibitory effect of 3, 5–8 and 10 on the SOD activity. […]
# Parasite cells were collected in the exponential growth phase by centrifugation (400g for 10 min). The pellet obtained after centrifugation was lysated by sonication, processed according to [38] and obtained the homogenate fraction which contained the parasite Fe-SOD. The protein content was quantified using the Sigma Bradford test, which uses BSA as a standard (no trace ability was certified for the BSA standard). Superoxide dismutase activities were determined using a method previously described, which measures the reduction in nitrobluetetrazolium (NBT) by superoxide ions. Human CuZn-SOD. Substrates used in these assays were obtained from Sigma Chemical Co. (St. Louis, MO, USA). Resulting data were analysed using the Newman−Keuls test.
# [2] = tested on: L. donovani promastigotes; test: Metabolite excretion by 1H-NMR, L. donovani; format: cell-based, Leishmania donovani; conditions: IC25 concentration, 72 h, vs untreated
# Method: Trypanosomatids catabolizes glucose at a high rate, excreting into the medium partly oxidized end products such as acetate, succinate, L-alanine or L-lactate.
# Cultures of L. donovani, L. infantum and L. braziliensis promastigotes were seeded in culture flaks at 5 × 10^5 cells/mL, and after the addition of the compounds at IC25 concentrations at 28 °C. Control cultures were also included. After 72 h of incubation, parasites were centrifuged at 400 × g for 10 min, and supernatants were collected in order to determine the excreted metabolites by ^1H-NMR. Chemical shifts were expressed in parts per million (ppm) using sodium 2,2-dimethyl-2-silapentane-5-sulphonate as the reference signal. The One-dimensional ^1H-NMR spectra were acquired with a VARIAN DIRECT DRIVE 400 MHz Bruker spectrometer (Rheinstetten, Germany) with an AutoX probe using D2O as solvent. The chemical shifts used to identify the respective metabolites were consistent with those described previously by some of the authors. The spectral region of 1.0–5.5 ppm was bucketed into a frequency window of 0.1 ppm. The peak (2.6 ppm) corresponding to DMSO was removed before binning, and the regions corresponding to water (4.5–5.5 ppm) and glucose (3.4–3.8 ppm) were excluded during binning to avoid artefacts due to pre-saturation. The aromatic region was excluded because the signal to noise ratio in this region was poorer in comparison to the aliphatic region. The resulting integrals were normalised to the working region (1.0–3.4) ppm of the spectrum to correct for inter-sample differences in dilution. The binning and normalisations were achieved using Mestrenova 9.0 software (Santiago de Compostela, Spain). The matrix obtained in Mestrenova was imported into Microsoft Excel (Redmond, WA, USA) for further data analyses.
# [3] = tested on: L. donovani promastigotes; test: Ultrastructural alterations by TEM, L. donovani; format: cell-based, Leishmania donovani; conditions: 72 h at IC25 concentration
# Method: Parasites were cultured at a density of 5 × 10^5 cells/mL with medium containing the tested compounds at IC25 concentrations. After 72 h at 28 °C, the cultures were processed using a technique previously described and analysed by TEM (LIBRA 120 PLUS, Zeiss, Barcelona, Spain).
# T1 sequence (P00441 whole entry): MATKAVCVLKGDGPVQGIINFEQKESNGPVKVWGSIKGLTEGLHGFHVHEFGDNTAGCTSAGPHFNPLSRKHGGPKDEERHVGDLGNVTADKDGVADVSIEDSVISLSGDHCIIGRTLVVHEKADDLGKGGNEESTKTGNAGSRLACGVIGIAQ
smiles,measurement,setting,value
CN(C)c1ccnc(CN2CCC[C@H]2[C@@H]2CCCN2Cc2cc(N(C)C)ccn2)c1 [Compound 7],IC50,[1],1100 ± 200 nM
same,IC50,human CuZn-SOD,> 500000 nM
same,"Excretion variation ACETATE, L. donovani",[2],> 50%
same,"Excretion variation L-ALANINE, L. donovani",[2],64%
same,"Excretion variation SUCCINATE, L. donovani",[2],> 50%
same,ultrastructural alterations of L. donovani promastigotes (TEM),[3],"cytoplasmic emptiness, none or a few ribosomes, swollen and disintegrated mitochondria and abundant lipid and non-lipid vacuoles"
